Laboratory results reported in patent US7244712B2, “Aminoglycoside antibiotics and methods of using same” (priority 2004, dated 2007).
Like-named read-outs stand apart in the source and are kept apart here.

How the values were obtained:
[1] = molecular target: human A-site decoding region construct (H), D-RNA; assay: Fluorescence anisotropy binding, D-RNA human A-site decoding region construct H
From the text: (§1) Experiments were designed to probe the stereospecificity of aminoglycoside binding to the RNA constructs shown in FIG. 9 because these small rRNA constructs mimic ribosomal decoding region RNA function. The three constructs shown include a bacterial 16S A-site rRNA construct (B) (27), its human counterpart (H), and an RNA aptamer (J6f1) selected to bind to the aminoglycoside tobramycin (12,15,16).
(§2) L-aminoglycoside binding to D-RNA sequences are energetically equivalent to binding the enantiotopic D-aminoglycoside to an L-RNA sequence. Initial binding experiments were carried out using enantiomerically pure L-RNA constructs, B, H, and J6f1 (FIG. 9A-C) and D-aminoglycoside compounds. Circular dichroism spectra of the purified constructs confirm the enantiomeric relationship of the corresponding D-RNA and L-RNA constructs (FIGS. 1A-C). The constructs were tested for aminoglycoside binding using the fluorescence anisotropy method described in Example 4. In these measurements, the fluorescent aminoglycoside CRP bearing a rhodamine chromaphore is used to monitor binding to the decoding region constructs (B and H) and fluorescent aminoglycoside CRT bearing a rhodamine chromaphore was used to monitor binding to RNA construct J6f1 (FIG. 9C). See, for example, Wang, Y. and Rando, R. R. Chem. Biol. (1995) 2, 281-290; Hamasaki, K., Killian, J. Cho, J., and Rando, R. R. Biochemistry (1998) 37, 656-663; and Cho, J. and Rando, R. R. (1999) Biochemistry 38, 8548-8554.
(§3) 5-Carboxytetramethylrhodamine-labeled paromomycin (CRP) and tobramycin (CRT) concentrations were determined spectroscopically at 550 nm using a molar extinction coefficient of 6.00×10 4 M −1 cm −1. Fluorescence anisotropy measurements were performed on a Perkin-Elmer LS-50B luminescence spectrometer equipped with a thermostat accurate to ±0.1° C. as indicated previously (Wang, Y., Hamasaki, K., & Rando, R. R. (1997) Biochemistry 36, 768-779). The tracer solution was excited at 550 nm and monitored at 580 nm. The integration time was 5 s. […]
(§4) Equation 1 was used for the determination of the dissociation constant (Kd) for the interactions between RNA or ribosome and CRP. A=A0+DA{(RNA)0+(CRP)0+Kd−({(RNA)0+(CRP)0+Kd}^2−4(RNA)0(CRP)0)½}/2 where A and A0 are the fluorescence anisotropy of CRP in the presence and absence of RNA, respectively, and DA is the difference between the fluorescence anisotropy of CRP in the presence of an extrapolated infinite concentration of RNA minus the fluorescence anisotropy in the absence of RNA. […]
(§5) Equation 2 is used for the calculation of the KD values in the competition binding assay. […] Both Kd and KD were determined by non-linear curve fitting using the equations described above, and are presented as mean values of three independent measurements.

70S ribosome = assay: Fluorescence anisotropy binding to 70S ribosomes; conditions: E. coli ribosomes
Procedure: (§6) After establishing the lack of stereospecificity in the binding of aminoglycosides to the A-site RNA constructs (FIG. 9A-C) where the binding affinity, KD, is about 0.1 μM to about 100 μM, the stereospecificity of aminoglycoside binding to intact ribosomes was determined. Both yeast and E. coli ribosomes were prepared and aminoglycoside binding was measured using fluorescence anisotropy methods. For example, fluorescence anisotropy methods recited in Wang, Y., and Rando, R. R. Chem. Biol. (1995) 2, 281-290; and Wang, Y., Hamasaki, K., and Rando, R. R. Biochemistry (1997) 36,768-779. CRP was used as the binding probe. […] Binding data reported herein for aminoglycoside compounds with eukaryotic yeast ribosomes are similar to binding data for said aminoglycoside compounds with ribosoimes in bacteria and with eukaryotic A-site rRNA constructs.
(§7) 5-Carboxytetramethylrhodamine-labeled paromomycin (CRP) and tobramycin (CRT) concentrations were determined spectroscopically at 550 nm using a molar extinction coefficient of 6.00×10 4 M −1 cm −1. Fluorescence anisotropy measurements were performed on a Perkin-Elmer LS-50B luminescence spectrometer equipped with a thermostat accurate to ±0.1° C. as indicated previously (Wang, Y., Hamasaki, K., & Rando, R. R. (1997) Biochemistry 36, 768-779). The tracer solution was excited at 550 nm and monitored at 580 nm. The integration time was 5 s. For every point, 6 measurements were taken, and their average values were used for calculation. Measurements were carried out in a buffer solution containing 150 mM NaCl, 5 mM KCl, 1 mM CaCl2, 1 mM MgCl2, and 20 mM HEPES (pH 7.5). Prior to measurements, RNA constructs were renatured by incubating in binding buffer {150 mM NaCl, 5 mM KCl, 1 mM CaCl2, 1 mM MgCl2, and 20 mM HEPES (pH 7.5)} for 3 minutes at 90° C. followed by slow cooling to 25° C.
(§8) Equation 1 was used for the determination of the dissociation constant (Kd) for the interactions between RNA or ribosome and CRP. A=A0+DA{(RNA)0+(CRP)0+Kd−({(RNA)0+(CRP)0+Kd}^2−4(RNA)0(CRP)0)½}/2 where A and A0 are the fluorescence anisotropy of CRP in the presence and absence of RNA, respectively, and DA is the difference between the fluorescence anisotropy of CRP in the presence of an extrapolated infinite concentration of RNA minus the fluorescence anisotropy in the absence of RNA. (RNA)0 and (CRP)0 are the initial concentrations of RNA and CRP, respectively.
(§9) Equation 2 is used for the calculation of the KD values in the competition binding assay. (aminoglycoside)0={KD(A−−A)/Kd(A−A0)+1}{(RNA)0−Kd(A−A0)/(A−−A)−(CRP)0(A−A0)/(A−−A)} where KD is the dissociation constant between the RNA and the aminoglycosides; (aminoglycoside)0 is the initial concentration of the aminoglycosides; AL is anisotropy of completely bound tracer. Both Kd and KD were determined by non-linear curve fitting using the equations described above, and are presented as mean values of three independent measurements.
The purification of E. coli (E600) 70S ribosomes was carried out according to the published procedure (Lazaro, E., van den Broek, L. A. G. M., Felix, A. S., Ottenheijm, H. C. J., Ballesta, J. P. G. (1991) Biochemistry 30, 9642-9648). E. coli MRE600 were grown for 12 h in 6L of LB medium (10 g trypton, 5 g yeast extract, 5 g NaCl per 1 L, pH 7.0) at 37° C. Crude ribosomes were precipitated from clarified supernatant by 4 h centrifugation at 25,000 rpm in Beckman SW 28 rotor at 4° C. The ribosome pellets were collected in 5 mL of buffer BR1, containing 10 mM HEPES, pH 7.5, 500 mM ammonium acetate, 100 mM magnesium chloride and 2.5 mM DTT. The ribosome suspension was centrifuged for 20 min at 15000 rpm to be clarified. The clarified sample was loaded over two layers of 20% and 40% sucrose in buffer BR1 and centrifuged for 18 hr at 19000 rpm in Beckman SW28 rotor at 4° C. […]

80S ribosome = assay: Fluorescence anisotropy binding to 80S ribosomes; parameters: species or system yeast (S. cerevisiae); conditions: yeast ribosomes
Procedure: as §6, §7, §8, §9
The purification of yeast 80S ribosomes from S. cerevisiae strain YSB 758 was carried out according to the published procedure (Verschoor, A., Warner, J. R., Srivastava, S., Grassucci, R. A., & Frank, J. (1997) Nucl. Acid Res. 26, 655-661). S. cerevisiea YSB 758 were grown for 12 hrs at 30° C. in 2L of YPD medium, containing: 20 g bacto peptone, 20 g glucose, 10 g yeast extract and 0.15 g tryptophan per 1 L, pH 7.0. The cells were lysed by 5-10 cycles of 1 min vigorous shaking with glass beads with a vortex, followed by cooling on ice. Clarified cell extract (about 9 mL total, used in 6 portions in 1.5 mL aliqouts) was carefully loaded on top of 2 mL of a cushion, composed of 10% sucrose and 5% ammonium sulfate dissolved in buffer YR1 (20 mM HEPES pH=7.4, 16 mM magnesium chloride, 100 mM potassium chloride, 5 mM DTT, and 0.5 mM EDTA). The ribosomes were collected by centrifugation in Beckman TL100.3 rotor at 75000 rpm for 3 h. The supernatants were carefully discarded and ribosomes were collected in buffer YR1. […]

[2] = molecular target: bacterial 16S A-site rRNA construct (B), D-RNA; assay: Fluorescence anisotropy binding, D-RNA bacterial A-site decoding region construct B
From the text: as §1, §2, §3, §4, §5

[3] = molecular target: human A-site decoding region construct (H), L-RNA; assay: Fluorescence anisotropy binding, L-RNA human A-site decoding region construct H
From the text: as §1, §2, §3, §4, §5

[4] = molecular target: bacterial 16S A-site rRNA construct (B), L-RNA; assay: Fluorescence anisotropy binding, L-RNA bacterial A-site decoding region construct B
From the text: as §1, §2, §3, §4, §5

RNA aptamer J6f1, L-RNA = assay: Fluorescence anisotropy binding, L-J6f1 tobramycin binding aptamer
From the text: as §1, §2, §7, §8, §5

RNA aptamer J6f1, D-RNA = assay: Fluorescence anisotropy binding, D-J6f1 tobramycin binding aptamer
From the text: as §1, §2, §3, §4, §5

[5] = test system: E. coli S30 extract, containing 70S ribosomes; assay: In vitro protein translation (CAT mRNA, 35S methionine incorporation); assay type: biochemical; conditions: quantitation of gel bands, read-out: IC50, concentration producing 50% inhibition of translation
Procedure: Protein translation was performed from chloramphenicol acetyl transferase (CAT) mRNA. […] A commercial E. coli ribosomal suspension was supplemented with an E. coli extract containing the required elements for translation. These include translation factors, tRNAs, and aminoacyl tRNA synthases. Plasmid, T7 RNA polymerase and amino acids were added to the reaction mixture, and both transcription and translation steps were performed in the same vial. The effects of the aminoglycosides on the translation process were evaluated by measuring the incorporation of ^35S methionine in the translated chloramphenicol acetyl transferase protein.
In vitro translation was performed by using PROTEINscript™-PRO (Ambion) kit. […] Reaction mixtures contained appropriate concentrations of antibiotic (neomycin B, D- and L-neamine). The protein was translated from CAT mRNA, transcribed from control DNA template containing CAT gene under control of the T7 promotor. The product, ˜25 kDa chloramphenicol acetyl transferase, was labeled during translation with 1 μCi ^35S methionine (New England Nuclear) per reaction (no cold methionine was added).
Following the translation, the samples were analyzed by electrophoresis on 4-20% SDS mini-gels (Invitrogen) for 1.5 h at 120V. Gels were fixed with 40% methanol/10% acetic acid and exposed to Molecular Dynamics phosphoimager plates, which were read on a Personal FX phosphoimager (Bio-Rad) and quantitated using QuantityOne™ software.

[6] = competition with CRP, read-out: Dissociation constant (KD) with 70S ribosome
[7] = competition with CRP, read-out: Dissociation constant (KD) with 80S ribosome
[8] = competition with CRP, read-out: Dissociation constant of aminoglycoside complex with D-H
[9] = competition with CRT, read-out: Dissociation constant of aminoglycoside complex with L-J6f1
[10] = competition with CRP, read-out: Dissociation constant of aminoglycoside complex with D-B
[11] = competition with CRP, read-out: Dissociation constant of aminoglycoside complex with L-H
[12] = competition with CRP, read-out: Dissociation constant of aminoglycoside complex with L-B
[13] = competition with CRT, read-out: Dissociation constant of aminoglycoside complex with D-J6f1

Molecule | Kd (70S ribosome; [6]) [nM] | Kd (80S ribosome; [7]) [nM] | Kd [1, 8] [nM] | Kd (RNA aptamer J6f1, L-RNA; [9]) [nM] | Kd [2, 10] [nM] | Kd [3, 11] [nM] | Kd [4, 12] [nM] | other results
5-carboxytetramethyl rhodamine-labeled paromomycin [CRP] |  |  |  |  |  |  |  | Kd ([1]; direct binding of fluorescent tracer CRP, read-out: Dissociation constant of CRP complex with D-H): 1360 ± 180 nM; Kd (70S ribosome; direct binding of CRP, read-out: Dissociation constant (Kd) of CRP with 70S Ribosome): 3.7 ± 1.1 nM; Kd (80S ribosome; direct binding of CRP, read-out: Dissociation constant (Kd) of CRP with 80S Ribosome): 3.2 ± 0.9 nM; Kd ([2]; direct binding of fluorescent tracer CRP, read-out: Dissociation constant of CRP complex with D-B): 170 ± 17.5 nM; Kd ([3]; direct binding of fluorescent tracer CRP, read-out: Dissociation constant of CRP complex with L-H): 900 ± 76 nM; Kd ([4]; direct binding of fluorescent tracer CRP, read-out: Dissociation constant of CRP complex with L-B): 224 ± 22.6 nM
5-carboxytetramethyl rhodamine-labeled tobramycin [CRT] |  |  |  |  |  |  |  | Kd (RNA aptamer J6f1, L-RNA; direct binding of fluorescent tracer CRT, read-out: Dissociation constant of CRT complex with L-J6f1): 200 ± 28 nM; Kd (RNA aptamer J6f1, D-RNA; direct binding of fluorescent tracer CRT, read-out: Dissociation constant of CRT complex with D-J6f1): 190 ± 11 nM
NCC1OC(OC2C(N)CC(N)C(O)C2O)C(N)C(O)C1O (single isomer, unassigned) [4-Isomer of L-Neamine (ent-3), 4-isomer of L-Neamine] | 6400 ± 870 | 33000 ± 5840 |  |  |  |  |  | 
NCC1OC(OC2C(O)C(N)CC(N)C2O)C(N)C(O)C1O (single isomer, unassigned) [5-Isomer of L-Neamine (ent-2), 5-isomer of L-Neamine] | 1550 ± 110 | 1530 ± 120 |  |  |  |  |  | 
NCC1OC(OC2C(O)C(N)CC(N)C2O)C(N)C(O)C1O [5-Isomer of D-Neamine (2), 5-isomer of D-Neamine] | 910 ± 130 | 2220 ± 110 |  |  |  |  |  | 
NCC1OC(OC2C(N)CC(N)C(O)C2O)C(N)C(O)C1O [6-Isomer of D-Neamine (3), 6-isomer of D-Neamine] | 30700 ± 1700 | 22500 ± 1250 |  |  |  |  |  | 
NC[C@@H]1O[C@H](O[C@H]2[C@@H](O)[C@H](O[C@@H]3[C@@H](O)[C@H](N)C[C@H](N)[C@H]3O[C@H]3O[C@H](CO)[C@@H](O)[C@H](O)[C@H]3N)O[C@@H]2CO)[C@H](N)[C@@H](O)[C@@H]1O [Paromomycin] | 1410 ± 150 | 1970 ± 100 | 2200 ± 170 | 4600 ± 370 | 1650 ± 350 | 2760 ± 260 | 6380 ± 270 | 
[H]/N=C(/N)N[C@H]1[C@H](O)[C@@H](O)[C@H](O[C@@H]2O[C@@H](C)[C@](O)(C=O)[C@H]2O[C@@H]2O[C@@H](CO)[C@H](O)[C@@H](O)[C@@H]2NC)[C@@H](N/C(N)=N\[H])[C@@H]1O [Streptomycin] |  | 30500 |  |  |  |  |  | Dissociation constant (KD) with 70S ribosome (70S ribosome; competition with CRP): did not exhibit measurable binding
NC[C@H]1O[C@H](O[C@H]2[C@H](O)[C@@H](O[C@H]3O[C@H](CO)[C@@H](O)[C@H](N)[C@H]3O)[C@H](N)C[C@@H]2N)[C@H](N)C[C@@H]1O [Tobramycin] | 1760 ± 380 | 3690 ± 310 | 1570 ± 210 | 2180 ± 230 | 1400 ± 240 | 3220 ± 260 | 4390 ± 370 | Kd (RNA aptamer J6f1, L-RNA; competition with CRT, listed as tobramycin, read-out: Dissociation constant of aminoglycoside complex with L-J6f1): 2200 nM; Kd (RNA aptamer J6f1, D-RNA; [13]): 5.2 ± 0.42 nM; Kd (RNA aptamer J6f1, D-RNA; read-out: KD of tobramycin with RNA aptamer J6f1): 5 nM
Neomycin | 140 ± 38 | 110 ± 14 | 260 ± 3.6 | 360 ± 21 | 52 ± 1.86 | 1410 ± 14 | 109 ± 4.6 | Kd (70S ribosome; competition with CRP, listed as neomycin B, read-out: Dissociation constant (KD) with 70S ribosome): ~100 nM; IC50 [5]: 15 µM; Kd (RNA aptamer J6f1, D-RNA; [13]): 5590 ± 1390 nM
